Results on ten compounds are retold here after US7439063B2, “Neuroprotective synergy of erythropoietin and insulin-like growth factors” (Burnham Institute for Medical Research, priority 2002, dated 2008).

Broadly, the IC50 is the point on the concentration scale where inhibition reaches its midpoint.

One series deals with Akt. The experiment in a line: Akt phosphorylation on serine-473 (immunoblot). The series is classed as cell-based, rat. (In general: Immunoblotting shows a protein as a band on a membrane.)
The subject of another series is cerebrocortical neurons. The settings on record: 6, 12, 16 and 48 hours after NMDA exposure; mixed neuronal-glial cultures.
Series [1] relates to active caspase-3/XIAP complex. The experiment in a line: XIAP associated with active caspase-3 (immunoprecipitation, densitometry). The series is classed as cell-based, rat. As to conditions: NMDA exposure alone. The protocol: In mixed cerebrocortical cultures, EPO is known to induce expression of XIAP and c-IAP, two related factors capable of inhibiting caspase-3 proteolytic activity (Digicaylioglu and Lipton, supra, 2001; and Holcik and Korneluk, Nat. Rev. Mol. Cell. Biol. 2:550-556 (2001)). Here, cerebrocortical cultures were analyzed for the effect of combined EPO and IGF-I treatment on association of XIAP and active caspase-3. Cultures were incubated with EPO, IGF-I and NMDA and, after immunoprecipitation of the active form of caspase-3, immunoprecipitates were probed for the presence of XIAP using western blotting.
To perform these experiments, cerebrocortical cultures were exposed to NMDA, or EPO and IGF-I, or concurrently exposed to NMDA and EPO/IGF-I as described above. Immunoprecipitation of culture lysates was performed using precleared whole-cell lysates, incubated with a 1:100 dilution of antibody specifically recognizing the cleaved form of caspase-3 (Cell Signaling Technologies) for one hour at room temperature, followed by addition of protein A/G-Sepharose beads and immunoprecipitation as described above. The immunoprecipitates were separated by electrophoresis and transferred to a nitrocellulose membrane, which was blotted with a 1:200 dilution of anti-XIAP antibody (Trevigen; Gaithersburg, Md.).

A further series relates to caspase-3. The experiment in a line: Caspase-3 (DEVD) cleavage assay in culture lysates. The series is classed as cell-based, rat. The settings on record: lysates 16 hours after NMDA exposure; simultaneous application or 3 hour preincubation. The method, then: To study the effect of combined EPO/IGF-I treatment on proteolytic activity of caspase-3, protein lysates were prepared from cerebrocortical cultures 16 hours after NMDA exposure, and caspase-3 activity was assayed using the fluorescent caspase-3 substrate, DEVD-7-amino-4-trifluoromethyl-coumarin (DEVD-AFC).
Caspase-3 (DEVD) cleavage assays were performed as described previously. Briefly, cerebrocortical cultures were lysed in cold buffer containing 10% sucrose, 0.1% CHAPS, 100 mM HEPES (pH 7.5), and 10 mM dithiothreitol (DTT). Cytoplasmic protein extracts (200 μg) were incubated for 30 minutes at 37° C. with 80 μM caspase-3 peptide substrate DEVD-AFC (Enzyme Systems Products; Livermore, Calif.). Free fluorescent AFC released by caspase-3 activity was measured on a FluoroMax2 fluorometer at 400 nm excitation and 505 nm emission.

Series [2] has as its system rat primary cerebrocortical cultures. The method, then:
The neuroprotective effects of concurrent EPO and IGF-I administration were compared to individual treatment with EPO or IGF-I in rat primary cerebrocortical cultures.
Neuronal apoptosis was quantified by double labeling for TUNEL reactivity, which in conjunction with condensed morphology is indicative of apoptosis, and the neuron-specific protein microtubule associated protein-2 (MAP2) 16 hours after NMDA insult.
For these experiments, mixed neuronal/glial cerebrocortical cultures were prepared as described previously (Bonfoco et al., supra, 1995); Lei et al., Neuron 8:1087-1099 (1992); and Lipton et al., Nature 364:626-632 (1993)). In brief, cortical tissue from embryonic day 16 Sprague-Dawley rats was dissociated in 0.5% trypsin and plated on poly-L-lysine coated glass coverslips at a density of 10^5 cells per 35 mm culture dish in serum-containing medium. Prior to experimental use, cerebrocortical neurons were kept at 37° C. and 5% CO2 for at least 17 days to permit full expression of NMDA receptors (Lei et al., supra, 1992; and Lipton et al., supra, 1993).
EPO and IGF-I incubations were performed essentially as follows. Human recombinant EPO purchased from Amgen (Epoietin alfa, 2000 IU/ml) was diluted in cell culture medium to a final concentration of 5-10 U/ml. Insulin-like growth factor-I (IGF-I) (Calbiochem; La Jolla, Calif.) was diluted in cell culture medium to a final concentration of 50-100 ng/ml.
NMDA incubations were performed as follows. Cerebrocortical cultures were exposed to 200 μM NMDA in nominally Mg^2+-free Earle's Balanced Salt Solution (EBSS), containing 1.8 mM CaCl2 and 5 μM glycine for 20 minutes. After NMDA exposure, cultures were washed with EBSS and then placed in conditioned tissue culture medium filtered with a […] Acrodisk filter (Perkin-Elmer; Wellesley, Mass.) to remove activated microglia. Where indicated, EPO, IGF-I or both EPO and IGF-I were added to the conditioned media.
Detection of apoptotic neurons was performed essentially as follows. After experimental incubation, cerebrocortical cultures were fixed in PBS (150 mM NaCl, 1.7 mM monobasic sodium phosphate, 9.1 mM dibasic sodium phosphate) with 4% paraformaldehyde, and permeabilized in PBS containing 1% Tween-20. Apoptotic cells were identified by condensed morphology in conjunction with TUNEL using the Apoptosis Detection System (Promega; Madison, Wis.). […]
For PI3-kinase inhibition, cultures were prepared and incubated with NMDA alone, or with EPO or IGF-I individually, or EPO in combination with IGF-I, as described above. […] Neuronal apoptosis was assessed 16 hours after NMDA application by determining the percentage of MAP2-positive cells that were also TUNEL positive, as described above.

In another series the target is T1, erythropoietin receptor (Homo sapiens, UniProt P19235).
T1 sequence (P19235 25-249 limits assumed): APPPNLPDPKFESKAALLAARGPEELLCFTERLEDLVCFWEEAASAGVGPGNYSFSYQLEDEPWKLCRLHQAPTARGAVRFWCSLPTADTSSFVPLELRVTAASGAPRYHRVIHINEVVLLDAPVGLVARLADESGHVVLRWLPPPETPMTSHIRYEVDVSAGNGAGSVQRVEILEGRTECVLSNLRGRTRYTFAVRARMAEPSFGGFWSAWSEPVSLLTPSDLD
As to conditions: known erythropoietin mimetic peptides; cited from earlier work.

Series [3] relates to focal cerebral ischemic damage. The settings on record: administered intranasally; cited from earlier work.
For series [4] the following is noted: naturally occurring peptide; cited from earlier work.
The subject of series [5] is p85 subunit of PI3-kinase. The experiment in a line: phosphorylation of the p85 subunit of PI3-kinase (immunoblot). Type of series: cell-based, rat. As to conditions: IGF-I: maximal phosphorylation; EPO: phosphorylation observed; treated 10, 20 or 30 minutes. The protocol: PI3-kinase is activated by phosphorylation of a p85 regulatory subunit, which leads to release of the catalytic subunit (Pleiman et al., Science 263:1609-1612 (1994)). To determine if EPO or IGF-I induces phosphorylation of the p85 subunit of PI3-kinase, rat cerebrocortical cultures were treated with EPO or IGF-I for 10, 20 or 30 minutes, and protein lysates from these cultures analyzed by immunoblotting for the presence of phospho-p85. As shown in FIG. 5B (upper and lower panels), both factors induced p85 phosphorylation in a time-dependent manner. […] Equal protein loading was confirmed by analyzing the amounts of total p85 with a second antibody.
Preparation of total cell extracts for immunoblotting or immunoprecipitation was performed essentially as follows. Cultures were washed briefly in cold PBS. After addition of ice cold lysis buffer (50 mM Tris-Cl, 150 mM NaCl, 1.1 mM PMSF, 10 μg/ml Aprotinin, 1% Triton X-100, pH 8.0, 2 mM Ortho-Vanadate, 0.1% deoxycholate), cells were scraped off the culture dishes. Lysates were transferred to a microcentrifuge tube, vortexed for 15 seconds at 4° C., and cleared by centrifugation for 20 minutes at 14,000×g at […]. Protein concentrations were determined using a BCAProtein assay kit (Pierce; Rockford, Ill.).
Immunoblotting was performed as follows. […]

Series [6] is described as follows: brain delivery of intranasally applied radiolabeled EPO (autoradiography). The series is classed as in vivo. The source says:
As disclosed herein, EPO or an active fragment or analog thereof can cross the blood-brain barrier following intranasal administration, whereby unwanted systemic effects such as increased hematocrit can be avoided.

Where two headings read alike, the source gives them in different places.

Protocol for cerebrocortical neurons: The total number of viable MAP2 positive cells was assayed to avoid the effects of secondary necrosis seen at longer survival times (Bonfoco et al., supra, 1995).
Neuronal survival was assayed as the total number of MAP2 positive cells to avoid the confounding effects of secondary necrosis, which can occur at later time points and obfuscate the number of apoptotic cells (Bonfoco et al., supra, 1995).

Regarding `CN[C@H](CC(=O)O)C(=O)O` [NMDA, N-methyl-D-aspartate], the “constitutive levels of Akt phosphorylation” value in the series with Akt (20-minute exposure to NMDA) is recorded as “reduced constitutive levels of Akt phosphorylation”. In addition, in the series on cerebrocortical neurons, the “number of surviving neurons in mixed cultures” value is listed as “dramatic decrease in the number of surviving neurons”. Further, the “amount of XIAP associated with active caspase-3, NMDA alone” value in series [1] is “modest increase”. Further, the “caspase-3-like activity (DEVD cleavage)” value with caspase-3 was “increased DEVD cleavage”. In series [2] (200 μM NMDA for 20 minutes alone, 16 hours after NMDA insult), the “apoptotic appearance and TUNEL reactivity, % of MAP2-labeled neurons” value is given as 76+7%.
Take GGCRIGPITWVCGG [AF11154]: on erythropoietin receptor, the IC50 was 10000 nM.
In the case of GGDYHCRMGPLTWVCKPLGG [EMP2], on erythropoietin receptor, the IC50 was 200 nM.
Regarding GGLYLCRFGPVTWDCGYKGG [EMP5], the concentration for half-maximal inhibition (IC50) at erythropoietin receptor is 1000 nM.
For GGTYSCHFGPLTWVCKPQGO [EMP1], in the series with erythropoietin receptor, the IC50 is 200 nM.
As for GGVYACRMGPITWVCSPLGC [EMP3], the IC50 at erythropoietin receptor was 300 nM.
“IGF-I: Insulin-like growth factor-I (Calbiochem), also known as somatomedin C, a hormone of 70 amino acids”: the “protection against focal cerebral ischemic damage” value in [3] is given as “can protect against focal cerebral ischemic damage”. In series [4], the pI is given as 8.4. Further, in the series with Akt (three hour incubation), the “phospho-serine-473 Akt” value was “moderate Akt activation”. The “time to phosphorylation of p85 subunit of PI3-kinase” value in series [5] was 10 min. The “cell death, treatment at the time of NMDA insult” value in series [2] (factor applied individually at the time of NMDA insult) was “did not significantly reduce cell death”. Besides, the “neuronal viability in control incubations” value in series [2] (in the absence of NMDA exposure) was “did not affect neuronal viability”. The “neuronal apoptosis after preincubation” value in series [2] (preincubation for three hours before NMDA, EPO 10 U/ml, IGF-I 100 ng/ml) was “significantly attenuated neuronal apoptosis”.
Consider “IGF-II: naturally occurring, relatively neutral peptide with 60% amino acid homology to native IGF-I”, for which the pI in series [4] is 6.4.
VGNYMCHFGPITWVCRPGGG [EMP4]: on erythropoietin receptor, the 50% inhibitory concentration (IC50) was 500 nM.
For the compound “radiolabeled EPO: intranasally applied radiolabeled erythropoietin”, the “distribution after intranasal application” value in [6] was “migrated into olfactory tissue and was observed in the rostral migratory stream”; in [6] (listed as radiolabeled erythropoietin), “accumulated in brain tissue”.
